Measurements from patent publication US9593144B2, “FPR1 antagonist derivatives and use thereof” (CHANG GUNG UNIVERSITY, priority 2014, dated 2017).
Like-named read-outs stand apart in the source and are kept apart here. Values belong to the molecule of their own block, whether it stands above or below them. Square brackets hold non-standard residues; d marks the D form. Peptide text beside a SMILES is read from it. * marks the point of attachment. dPhe(4-NO2) = N[C@H](Cc1ccc([N+](=O)[O-])cc1)C(=O)O; Trp(5-OH) = N[C@@H](Cc1c[nH]c2ccc(O)cc12)C(=O)O; dPhe(4-Cl) = N[C@H](Cc1ccc(Cl)cc1)C(=O)O; Nicotinoyl = O=C(c1cccnc1)*; PhAc = O=C(Cc1ccccc1)*; Bz = O=C(c1ccccc1)*

How the values were obtained:
human neutrophils [1] = assay: cells; type: cell-based; details: for IC50: mean ± SEM
Experimental: Degranulation of azurophilic granules was determined by elastase release as described above. Experiments were performed using MeO-Suc-[…]-nitroanilide as the elastase substrate. […] Results are expressed as the percentage of elastase release in the drug-free control group, DMSO. Tables 5 and 6 explore whether there is an anti-inflamatory effect in the dipeptide derivatives. Because ferricytochrome c cannot penetrate cell membranes, it reacts with superoxide anion extracellularly. Also, there are absorptive reactions at 550 nm, and differences among the absorptive reactions can be used to evaluate the influence on the release of superoxide anion. The elastase is released by degranulation as the neutrophil is activated. Tables 5 and 6 use the substrate, MeO-Suc-[…]-nitroanilide, with the specificity for reacting with the elastase so as to evaluate the influence of the candidate compound on the elastase release. Blood was taken from healthy human donors (20-32 years old) by venipuncture, following a protocol approved by the Institutional Review Board at Chang Gung Memorial Hospital. Neutrophils were isolated by a standard method of dextran sedimentation prior to centrifugation in a Ficoll Hypaque gradient and the hypotonic lysis of erythrocytes. […] The degranulation of azurophilic granules was determined by elastase release as described above. Experiments were performed using MeO-Suc-[…]-nitroanilide as the elastase substrate. Briefly, after supplementation with MeO-Suc-[…]-nitroanilide ([…] neutrophils (6×10^5 ml^-1) were equilibrated at 37° C. for 2 min and incubated with drugs for 5 min. […] The results are expressed as the percentage of elastase release in the drug-free control group.

human neutrophils [2] = assay: cells; type: cell-based; details: for IC50: mean ± SEM; remark: listed apart in the source
Excerpt: Tables 5 and 6 explore whether there is an anti-inflamatory effect in the dipeptide derivatives. Because ferricytochrome c cannot penetrate cell membranes, it reacts with superoxide anion extracellularly. Also, there are absorptive reactions at 550 nm, and differences among the absorptive reactions can be used to evaluate the influence on the release of superoxide anion. The elastase is released by degranulation as the neutrophil is activated. Tables 5 and 6 use the substrate, MeO-Suc-Ala-Ala-Pro-Val-p-nitroanilide, with the specificity for reacting with the elastase so as to evaluate the influence of the candidate compound on the elastase release.
Blood was taken from healthy human donors (20-32 years old) by venipuncture, following a protocol approved by the Institutional Review Board at Chang Gung Memorial Hospital. Neutrophils were isolated by a standard method of dextran sedimentation prior to centrifugation in a Ficoll Hypaque gradient and the hypotonic lysis of erythrocytes.
The evaluation of O2.^− generation was based on the SOD-inhibitable reduction of ferricytochrome c. In brief, after supplementation with 0.5 mg ml^−1 ferricytochrome c and 1 mM Ca^2+, neutrophils were equilibrated at 37° C. for 2 min and incubated with drugs […].

[3] = Neutrophil, fMLP/CB, n = 3, Table 1, read-out: Anti-inflammation NE release (IC50)
[4] = Neutrophil, human neutrophils, fMLP/CB, n = 3, Table 1, read-out: Anti-inflammation O2•− generation (IC50)
[5] = fMLP/CB, n = 3, Table 1, read-out: Anti-inflammation NE release (IC50)
[6] = human neutrophils, fMLP/CB, n = 3, Table 1, read-out: Anti-inflammation O2•− generation (IC50)
[7] = fMLP/CB, n = 3, Table 2, read-out: Anti-inflammation NE release (IC50)
[8] = human neutrophils, fMLP/CB, n = 3, Table 2, read-out: Anti-inflammation O2•− generation (IC50)
[9] = fMLP/CB, n = 3, Table 3, read-out: Anti-inflammation NE release (IC50)
[10] = human neutrophils, fMLP/CB, n = 3, Table 3, read-out: Anti-inflammation O2•− generation (IC50)

- melting point: 191 to 193 °C
- IC50 (human neutrophils [1]; [3]): > 30 µM
- IC50 (human neutrophils [2]; [4]): > 30 µM
SMILES: COC(=O)[C@@H](Cc1ccccc1)NC(=O)[C@H](Cc1c[nH]c2ccccc12)NC(=O)c1ccc(F)cc1 [Compound 4, N—(N-4-Fluorobenzoyl-L-tryptophanyl)-D-phenylalanine methyl ester]

- melting point: 191 to 193 °C
- IC50 (human neutrophils [1]; [3]): 10.4 ± 4.61 µM
- IC50 (human neutrophils [2]; [4]): > 30 µM
SMILES: COC(=O)[C@@H](Cc1ccccc1)NC(=O)[C@H](Cc1c[nH]c2ccccc12)NC(=O)c1ccc(Cl)cc1 [Compound 5, N—(N-4-Chlorobenzoyl-L-tryptophanyl)-D-phenylalanine methyl ester]

- melting point: 169 to 171 °C
- IC50 (human neutrophils [1]; Neutrophil, WKYMVm, n = 4 or 8, Table 6, read-out: Elastase release WKYMVm IC50): 1.96 ± 0.11 µM
- IC50 (human neutrophils [1]; Neutrophil, WKYMVm/CB, n = 3, Table 4, read-out: WKYMVm/CB NE release (IC50)): 1.96 ± 0.11 µM
- IC50 (human neutrophils [1]; Neutrophil, fMLF, n = 4 or 8, Table 6, read-out: Elastase release fMLF IC50): 2.47 ± 0.25 µM
- IC50 (human neutrophils [1]; Neutrophil, fMLF/CB, n = 3, Table 4, read-out: fMLF/CB NE release (IC50)): 2.47 ± 0.25 µM
- IC50 (human neutrophils [1]; [3]): 2.47 ± 0.25 µM
- IC50 (human neutrophils [2]; Neutrophil, WKYMVm, n = 4 or 8, Table 5, read-out: Superoxide anion WKYMVm IC50): 6.55 ± 0.59 µM
- IC50 (human neutrophils [2]; Neutrophil, WKYMVm/CB, n = 3, Table 4, read-out: WKYMVm/CB O2•− generation (IC50)): 6.55 ± 0.59 µM
- IC50 (human neutrophils [2]; Neutrophil, human neutrophils, fMLF/CB, n = 3, Table 4, read-out: fMLF/CB O2•− generation (IC50)): 1.88 ± 0.29 µM
- IC50 (human neutrophils [2]; Neutrophil, human neutrophils, fMLF, n = 4 or 8, Table 5, read-out: Superoxide anion fMLF IC50): 1.88 ± 0.29 µM
- IC50 (human neutrophils [2]; [4]): 1.88 ± 0.29 µM
SMILES: COC(=O)[C@@H](Cc1ccccc1)NC(=O)[C@H](Cc1c[nH]c2ccccc12)NC(=O)c1ccc(C)cc1 [Compound 6, N—(N-4-Methylbenzoyl-L-tryptophanyl)-D-phenylalanine methyl ester]

- melting point: 151 to 153 °C
- IC50 (human neutrophils [1]; [3]): > 30 µM
- IC50 (human neutrophils [2]; [4]): > 30 µM
SMILES: COC(=O)[C@@H](Cc1ccccc1)NC(=O)[C@H](Cc1c[nH]c2ccccc12)NC(=O)c1ccc(OC)cc1 [Compound 7, N—(N-4-Methoxylbenzoyl-L-tryptophanyl)-D-phenylalanine methyl ester]

- melting point: 182 to 184 °C
- IC50 (human neutrophils [1]; [3]): 5.71 ± 0.39 µM
- IC50 (human neutrophils [2]; [4]): 10.2 ± 4.53 µM
SMILES: COC(=O)[C@@H](Cc1ccccc1)NC(=O)[C@H](Cc1c[nH]c2ccccc12)NC(=O)Cc1ccccc1 [Compound 8, N—(N-Phenylacetyl-L-tryptophanyl)-D-phenylalanine methyl ester] (PhAc-Trp-[dF]-OMe)

SMILES: COC(=O)[C@@H](Cc1ccccc1)NC(=O)[C@H](Cc1c[nH]c2ccc(O)cc12)NC(=O)c1ccccc1 [Compound 11a, N—(N-Benzoyl-5-hydroxy-L-tryptophanyl)-D-phenylalanine methyl esters] (Bz-[Trp(5-OH)]-[dF]-OMe)
- IC50 (human neutrophils [1]; [5]): 9.11 ± 0.76 µM
- IC50 (human neutrophils [2]; [6]): 8.81 ± 1.22 µM

SMILES: COC(=O)[C@@H](Cc1ccccc1)NC(=O)[C@H](Cc1c[nH]c2ccc(O)cc12)NC(=O)c1ccccc1 [Compound 11b, N—(N-Benzoyl-5-hydroxy-L-tryptophanyl)-D-phenylalanine methyl esters] (Bz-[Trp(5-OH)]-[dF]-OMe)
- IC50 (human neutrophils [1]; [5]): 22.1 ± 4.96 µM
- IC50 (human neutrophils [2]; [6]): 18.7 ± 4.02 µM

- IC50 (human neutrophils [1]; Neutrophil, fMLP/CB, n = 3, Table 3, read-out: Anti-inflammation NE release (IC50)): > 30 µM
- IC50 (human neutrophils [2]; Neutrophil, human neutrophils, fMLP/CB, n = 3, Table 3, read-out: Anti-inflammation O2•− generation (IC50)): > 30 µM
SMILES: O=C(N[C@@H](Cc1c[nH]c2ccccc12)C(=O)N[C@@H](CO)Cc1cccc(O)c1)c1ccccc1 [Compound 12a, N—(N-Benzoyl-L-tryptophanyl)-5-hydroxy-D-phenylalaninol]

SMILES: COC(=O)[C@@H](Cc1ccccc1)NC(=O)[C@H](Cc1c[nH]c2ccccc12)NC(=O)c1cccnc1 [Compound 15a, N—(N-nicotinoyl-L-tryptophanyl)-D-phenylalanine methyl esters] (Nicotinoyl-Trp-[dF]-OMe)
- IC50 (human neutrophils [1]; [5]): > 30 µM
- IC50 (human neutrophils [2]; [6]): 13.1 ± 0.5 µM

SMILES: COC(=O)[C@@H](Cc1ccccc1)NC(=O)[C@H](Cc1c[nH]c2ccccc12)NC(=O)c1cccnc1 [Compound 15b, N—(N-nicotinoyl-L-tryptophanyl)-D-phenylalanine methyl esters] (Nicotinoyl-Trp-[dF]-OMe)
- IC50 (human neutrophils [1]; [5]): > 30 µM
- IC50 (human neutrophils [2]; [6]): > 30 µM

SMILES: COC(=O)[C@@H](Cc1ccc([N+](=O)[O-])cc1)NC(=O)[C@H](Cc1c[nH]c2ccccc12)NC(=O)c1ccccc1 [Compound 18a, N—(N-Benzoyl-L-tryptophanyl)-para-nitro-D-phenylalanine methyl esters] (Bz-Trp-[dPhe(4-NO2)]-OMe)
- IC50 (human neutrophils [1]; [7]): 11.2 ± 0.46 µM
- IC50 (human neutrophils [2]; [8]): 19 ± 2.7 µM

SMILES: COC(=O)[C@@H](Cc1ccc([N+](=O)[O-])cc1)NC(=O)[C@H](Cc1c[nH]c2ccccc12)NC(=O)c1ccccc1 [Compound 18b, N—(N-Benzoyl-L-tryptophanyl)-para-nitro-D-phenylalanine methyl esters] (Bz-Trp-[dPhe(4-NO2)]-OMe)
- IC50 (human neutrophils [1]; [7]): 15.4 ± 0.54 µM
- IC50 (human neutrophils [2]; [8]): 13.1 ± 0.4 µM

SMILES: COC(=O)[C@@H](Cc1ccc(Cl)cc1)NC(=O)[C@H](Cc1c[nH]c2ccccc12)NC(=O)c1ccccc1 [Compound 21a, N—(N-Benzoyl-L-tryptophanyl)-para-chloro-D-phenylalanine methyl esters] (Bz-Trp-[dPhe(4-Cl)]-OMe)
- IC50 (human neutrophils [1]; [7]): 4.31 ± 0.52 µM
- IC50 (human neutrophils [2]; [8]): 4.41 ± 0.27 µM

SMILES: COC(=O)[C@@H](Cc1ccc(Cl)cc1)NC(=O)[C@H](Cc1c[nH]c2ccccc12)NC(=O)c1ccccc1 [Compound 21b, N—(N-Benzoyl-L-tryptophanyl)-para-chloro-D-phenylalanine methyl esters] (Bz-Trp-[dPhe(4-Cl)]-OMe)
- IC50 (human neutrophils [1]; [7]): 12.4 ± 3.53 µM
- IC50 (human neutrophils [2]; [8]): 5.26 ± 0.84 µM

SMILES: N#CCNC(=O)[C@@H](Cc1ccccc1)NC(=O)[C@H](Cc1c[nH]c2ccccc12)NC(=O)c1ccccc1 [Compound 27a, N—(N-benzoyl-L-tryptophanyl)-D-phenylalanine-glycine-nitriles]
- Elastase release WKYMVm Inh % (human neutrophils [1]; WKYMVm, inhibitory percentage under 10 μM, Table 6): 35.9 ± 0.8 %
- Elastase release fMLF Inh % (human neutrophils [1]; fMLF, inhibitory percentage under 10 μM, Table 6, listed as HCH 90-2-2): 28.79 ± 2.6 %
- IC50 (human neutrophils [1]; [9]): 4.69 ± 0.8 µM
- Superoxide anion WKYMVm Inh % (human neutrophils [2]; WKYMVm, inhibitory percentage under 10 μM, Table 5, listed as HCH 90-2-2): 28.79 ± 2.6 %
- IC50 (human neutrophils [2]; human neutrophils, fMLF, n = 4 or 8, Table 5, read-out: Superoxide anion fMLF IC50): 6.23 ± 1.05 µM
- IC50 (human neutrophils [2]; [10]): 4.23 ± 2.44 µM

SMILES: N#CCNC(=O)[C@@H](Cc1ccccc1)NC(=O)[C@H](Cc1c[nH]c2ccccc12)NC(=O)c1ccccc1 [Compound 27b, N—(N-benzoyl-L-tryptophanyl)-D-phenylalanine-glycine-nitriles]
- IC50 (human neutrophils [1]; WKYMVm, n = 4 or 8, Table 6, read-out: Elastase release WKYMVm IC50): 6.65 ± 0.23 µM
- Elastase release fMLF Inh % (human neutrophils [1]; fMLF, inhibitory percentage under 10 μM, Table 6, listed as HCH 90-2-1): 18.66 ± 0.7 %
- IC50 (human neutrophils [1]; [9]): 14.5 ± 2.87 µM
- Superoxide anion WKYMVm Inh % (human neutrophils [2]; WKYMVm, inhibitory percentage under 10 μM, Table 5, listed as HCH 90-2-1): 18.66 ± 0.7 %
- Superoxide anion fMLF Inh % (human neutrophils [2]; human neutrophils, fMLF, inhibitory percentage under 10 μM, Table 5): 34.61 ± 4.1 %
- IC50 (human neutrophils [2]; [10]): 10.5 ± 4.23 µM

SMILES: C/C=C/C[C@@H](C)[C@@H](O)[C@H]1C(=O)N[C@@H](CC)C(=O)N(C)CC(=O)N(C)[C@@H](CC(C)C)C(=O)N[C@@H](C(C)C)C(=O)N(C)[C@@H](CC(C)C)C(=O)N[C@@H](C)C(=O)N[C@H](C)C(=O)N(C)[C@@H](CC(C)C)C(=O)N(C)[C@@H](CC(C)C)C(=O)N(C)[C@H](C(C)C)C(=O)N1C [CycH, Cyclosporin H, reference compound]
- IC50 (human neutrophils [1]; WKYMVm/CB, n = 3, Table 4, read-out: WKYMVm/CB NE release (IC50)): 0.17 ± 0.01 µM

- IC50 (human neutrophils [1]; [3]): 0.046 ± 0.02 µM
SMILES: CC(C)(C)C(=O)Oc1ccc(S(=O)(=O)Nc2ccccc2C(=O)NCC(=O)O)cc1 [Sivelestat, reference compound]
